Laboratory results published in ChEMBL document CHEMBL2086226, “Synthesis of paclitaxel-BGL conjugates” (Bioorg Med Chem, 2012).
Activity calls are given as the source filed them. No cut-off for these calls is given here.

Tests used:
A549 = assay: Antitumor activity against human A549 cells xenografted in nude BALB/c mouse assessed as tumor growth inhibition at 3.51 umol/kg, ip administered on day 1, 4 and 7 post-inoculation measured up to 14 days; type: functional, organism-based
[1] = Octanol-water partition coefficient, log P of the compound; type: physicochemical

| logP [1] | SMILES | growth inhibition (GI) (A549) |
| --- | --- | --- |
| 2.25 | CC(=O)O[C@H]1C(=O)[C@@]2(C)[C@H]([C@H](OC(=O)c3ccccc3)[C@]3(O)C[C@H](OC(=O)[C@H](O)[C@@H](NC(=O)c4ccccc4)c4ccccc4)C(C)=C1C3(C)C)[C@]1(OC(C)=O)CO[C@@H]1C[C@@H]2O [PACLITAXEL] | Active |
| 1.99 | CC(=O)O[C@H]1C(=O)[C@]2(C)[C@@H](OC(=O)CCC(=O)OC(COC(CO)CO)COC(CO)CO)C[C@H]3OC[C@@]3(OC(C)=O)[C@H]2[C@H](OC(=O)c2ccccc2)[C@]2(O)C[C@H](OC(=O)[C@H](O)[C@@H](NC(=O)c3ccccc3)c3ccccc3)C(C)=C1C2(C)C |  |
| 1.46 | CC(=O)O[C@H]1C(=O)[C@@]2(C)[C@H]([C@H](OC(=O)c3ccccc3)[C@]3(O)C[C@H](OC(=O)[C@H](O)[C@@H](NC(=O)CCC(=O)OC(COC(CO)CO)COC(CO)CO)c4ccccc4)C(C)=C1C3(C)C)[C@]1(OC(C)=O)CO[C@@H]1C[C@@H]2O | Active |
| 2.26 | CC(=O)O[C@H]1C(=O)[C@@]2(C)[C@H]([C@H](OC(=O)c3ccccc3)[C@]3(O)C[C@H](OC(=O)[C@H](OC(=O)CCC(=O)OC(COC(CO)CO)COC(CO)CO)[C@@H](NC(=O)c4ccccc4)c4ccccc4)C(C)=C1C3(C)C)[C@]1(OC(C)=O)CO[C@@H]1C[C@@H]2O |  |
